According to patent publication US20230322846A9, “NEUROACTIVE STEROIDS AND THEIR METHODS OF USE” (SAGE THERAPEUTICS, INC., priority 2018, published 2023):

The compounds below were run against [35S]-TBPS binding, rat brain cortical membranes (assay: Steroid inhibition of [35S]-TBPS binding). Conditions: 3 nM [35S]-TBPS, in the presence of 5 mM GABA.
In short: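 Rat cortical P2 membranes incubated 90 min at room temperature with 3 nM [35S]-TBPS, […] and test compound (0.5% DMSO final) in NaCl/Na–K phosphate pH 7.4; nonspecific binding with […]. Filter-bound radioactivity counted; IC50 and Imax from nonlinear fits, mean ± SEM.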

First: C[C@H](Cn1nccn1)[C@H]1CC[C@H]2[C@@H]3CC[C@H]4C[C@](C)(O)CC[C@@H]4[C@H]3CC[C@]12C [Example 58, (3R,5S,8R,9R,10S,13S,14S,17R)-17-((S)-1-(2H-1,2,3-triazol-2-yl)propan-2-yl)-3,13-dimethylhexadecahydro-1H-cyclopenta[a]phenanthren-3-ol]
Second: C[C@@H](Cn1ccnn1)[C@H]1CC[C@H]2[C@@H]3CC[C@H]4C[C@](C)(O)CC[C@@H]4[C@H]3CC[C@]12C [Example 59, (3R,5S,8R,9R,10S,13S,14S,17R)-17-((R)-1-(1H-1,2,3-triazol-1-yl)propan-2-yl)-3,13-dimethylhexadecahydro-1H-cyclopenta[a]phenanthren-3-ol]
The IC50 of the first is higher: 1000 to 10000 nM for the first, 100 to 1000 nM for the second.

First: C[C@@]1(O)CC[C@H]2[C@H](CC[C@@H]3[C@@H]2CC[C@]2(C)[C@@H](CN4C[C@H](c5ccccc5)CC4=O)CC[C@@H]32)C1 [Example 10, (S)-1-(((3R,5R,8R,9R,10S,13S,14S,17S)-3-hydroxy-3,13-dimethylhexadecahydro-1H-cyclopenta[a]phenanthren-17-yl)methyl)-4-phenylpyrrolidin-2-one]
Second: C[C@@]1(O)CC[C@H]2[C@H](CC[C@@H]3[C@@H]2CC[C@]2(C)[C@@H](CN4C(=O)CCC[C@@H]4c4ccccc4)CC[C@@H]32)C1 [Example 13, (R)-1-(((3R,5R,8R,9R,10S,13S,14S,17S)-3-hydroxy-3,13-dimethylhexadecahydro-1H-cyclopenta[a]phenanthren-17-yl)methyl)-6-phenylpiperidin-2-one]
The IC50 of the first is higher: 100 to 1000 nM for the first, less than 100 nM for the second. The second is the more potent here.

`C[C@@]1(O)CC[C@H]2[C@H](CC[C@@H]3[C@@H]2CC[C@]2(C)[C@@H](CC(=O)Nc4ccccc4)CC[C@@H]32)C1` [Example 76, 2-((3R,5R,8R,9R,10S,13R,14S,17R)-3-hydroxy-3,13-dimethylhexadecahydro-1H-cyclopenta[a]phenanthren-17-yl)-N-phenylacetamide] and `C[C@@]1(O)CC[C@H]2[C@H](CC[C@@H]3[C@@H]2CC[C@]2(C)[C@@H]([C@H](Nc4ccccc4)C(F)(F)F)CC[C@@H]32)C1` [Example 505] fall in the same range of IC50: 100 to 1000 nM for the first, 100 to 1000 nM for the second.

First: C[C@@H](Cc1ccc(C(F)(F)F)nc1)[C@H]1CC[C@H]2[C@@H]3CC[C@@H]4C[C@](C)(O)CC[C@]4(C)[C@H]3CC[C@]12C [Example 427]
Second: C[C@H](Cc1ccc(C(F)(F)F)nc1)[C@H]1CC[C@H]2[C@@H]3CC[C@@H]4C[C@](C)(O)CC[C@]4(C)[C@H]3CC[C@]12C [Example 426]
The IC50 of the first is lower: less than 100 nM for the first, 100 to 1000 nM for the second. The first is the more potent here.

`COC[C@@]1(O)CC[C@H]2[C@H](CC[C@@H]3[C@@H]2CC[C@]2(C)[C@@H]([C@H](C)Nc4ccc(C#N)cc4)CC[C@@H]32)C1` [Example 257] and `CC[C@@]1(O)CC[C@H]2[C@H](CC[C@@H]3[C@@H]2CC[C@]2(C)[C@@H]([C@@H](C)Nc4ccc(C#N)nc4)CC[C@@H]32)C1` [Example 491, 5-(((R)-1-((3R,5R,8R,9R,10S,13S,14S,17S)-3-ethyl-3-hydroxy-13-methylhexadecahydro-1H-cyclopenta[a]phenanthren-17-yl)ethyl)amino)picolinonitrile] fall in the same range of IC50: 100 to 1000 nM for the first, 100 to 1000 nM for the second.

`CC[C@]12CC[C@@](C)(O)C[C@H]1CC[C@H]1[C@@H]3CC[C@H](C(C)Cn4cc(C#N)cn4)[C@@]3(C)CC[C@@H]12` (stereo in doubt) [Example 326, 1-((R)-2-((3R,5R,8S,9S,10S,13S,14S,17R)-10-ethyl-3-hydroxy-3,13-dimethylhexadecahydro-1H-cyclopenta[a]phenanthren-17-yl)propyl)-1H-pyrazole-4-carbonitrile] and `C[C@@H](Cn1cc(C#N)cn1)[C@H]1CC[C@H]2[C@@H]3CC[C@@H]4C[C@](C)(O)CC[C@]4(C)[C@H]3CC[C@]12C` [Example 305, 1-((R)-2-((3R,5R,8R,9S,10S,13S,14S,17R)-3-hydroxy-3,10,13-trimethylhexadecahydro-1H-cyclopenta[a]phenanthren-17-yl)propyl)-1H-pyrazole-4-carbonitrile] cannot be ordered by IC50: less than 100 nM for the first, less than 100 nM for the second.

Compared with `CCOC[C@@]1(O)CC[C@H]2[C@H](CC[C@@H]3[C@@H]2CC[C@]2(C)[C@@H]([C@@H](C)Nc4cccnc4F)CC[C@@H]32)C1` [Example 262], `CCOC[C@@]1(O)CC[C@H]2[C@H](CC[C@@H]3[C@@H]2CC[C@]2(C)[C@@H]([C@H](CC)Nc4ccc(C#N)nc4)CC[C@@H]32)C1` [Example 493, 5-(((S)-1-((3R,5R,8R,9R,10S,13S,14S,17S)-3-(ethoxymethyl)-3-hydroxy-13-methylhexadecahydro-1H-cyclopenta[a]phenanthren-17-yl)propyl)amino)picolinonitrile] is higher in IC50: less than 100 nM for the first, 1000 to 10000 nM for the second.

First: CCC[C@@]1(O)CC[C@H]2[C@H](CC[C@@H]3[C@@H]2CC[C@]2(C)[C@@H]([C@H](C)Cc4ccc(C(F)(F)F)nc4)CC[C@@H]32)C1 [Example 411]
Second: Cc1cncc(C[C@@H](C)[C@H]2CC[C@H]3[C@@H]4CC[C@@H]5C[C@](C)(O)CC[C@@H]5[C@H]4CC[C@]23C)n1 [Example 442]
The IC50 of the first is lower: less than 100 nM for the first, 100 to 1000 nM for the second. The first is the more potent here.

First: C[C@H](Nc1cccnc1)[C@H]1CC[C@H]2[C@@H]3CC[C@@H]4C[C@](C)(O)CC[C@@H]4[C@H]3CC[C@]12C [Example 204]
Second: COc1cccc(C(=O)N[C@H](C)[C@H]2CC[C@H]3[C@@H]4CC[C@@H]5C[C@](C)(O)CC[C@@H]5[C@H]4CC[C@]23C)c1 [Example 104]
The IC50 of the first is higher: 100 to 1000 nM for the first, less than 100 nM for the second. The second is the more potent here.

First: C[C@H](Cn1ccnn1)[C@H]1CC[C@H]2[C@@H]3CC[C@H]4C[C@](C)(O)CC[C@@H]4[C@H]3CC[C@]12C [Example 60, (3R,5S,8R,9R,10S,13S,14S,17R)-17-((S)-1-(1H-1,2,3-triazol-1-yl)propan-2-yl)-3,13-dimethylhexadecahydro-1H-cyclopenta[a]phenanthren-3-ol]
Second: COC[C@@]1(O)CC[C@H]2[C@H](CC[C@@H]3[C@@H]2CC[C@]2(C)[C@@H]([C@H](C)Cn4nccc4C#N)CC[C@@H]32)C1 [Example 34, 1-((S)-2-((3R,5R,8R,9R,10S,13S,14S,17R)-3-hydroxy-3-(methoxymethyl)-13-methylhexadecahydro-1H-cyclopenta[a]phenanthren-17-yl)propyl)-1H-pyrazole-5-carbonitrile]
The IC50 of the first is higher: 100 to 1000 nM for the first, less than 100 nM for the second.

Compared with `C[C@@H]([C@H]1CC[C@H]2[C@@H]3CC[C@@H]4C[C@](C)(O)CC[C@@H]4[C@H]3CC[C@]12C)N(C)S(=O)(=O)c1ccccc1` [Example 21, N—((S)-1-((3R,5R,8R,9R,10S,13S,14S,17S)-3-hydroxy-3,13-dimethylhexadecahydro-1H-cyclopenta[a]phenanthren-17-yl)ethyl)-N-methylbenzenesulfonamide], `C[C@@H](NC(=O)c1ccc(F)cc1)[C@H]1CC[C@H]2[C@@H]3CC[C@@H]4C[C@](C)(O)CC[C@@H]4[C@H]3CC[C@]12C` [Example 116] is lower in IC50: 1000 to 10000 nM for the first, less than 100 nM for the second. The second is the more potent here.

`C[C@H](Cn1cc(C#N)cn1)[C@H]1CC[C@H]2[C@@H]3CC[C@@H]4C[C@@](O)(CC5CC5)CC[C@@H]4[C@H]3CC[C@]12C` [Example 304, 1-((S)-2-((3S,5R,8R,9R,10S,13S,14S,17R)-3-(cyclopropylmethyl)-3-hydroxy-13-methylhexadecahydro-1H-cyclopenta[a]phenanthren-17-yl)propyl)-1H-pyrazole-4-carbonitrile] and `CCC[C@@]1(O)CC[C@@]2(C)[C@H](CC[C@@H]3[C@@H]2CC[C@]2(C)[C@@H]([C@H](C)Cn4cc(C#N)cn4)CC[C@@H]32)C1` [Example 308, 1-((S)-2-((3R,5R,8R,9S,10S,13S,14S,17R)-3-hydroxy-10,13-dimethyl-3-propylhexadecahydro-1H-cyclopenta[a]phenanthren-17-yl)propyl)-1H-pyrazole-4-carbonitrile] cannot be ordered by IC50: less than 100 nM for the first, less than 100 nM for the second.

First: C[C@H]([C@H]1CC[C@H]2[C@@H]3CC[C@@H]4C[C@](C)(O)CC[C@@H]4[C@H]3CC[C@]12C)N1CCc2cc(C#N)ccc2C1=O [Example 45, 2-((R)-1-((3R,5R,8R,9R,10S,13S,14S,17S)-3-hydroxy-3,13-dimethylhexadecahydro-1H-cyclopenta[a]phenanthren-17-yl)ethyl)-1-oxo-1,2,3,4-tetrahydroisoguinoline-6-carbonitrile]
Second: Cc1cc(C#N)ccc1N[C@@H]([C@H]1CC[C@H]2[C@@H]3CC[C@@H]4C[C@](C)(O)CC[C@@H]4[C@H]3CC[C@]12C)C(F)(F)F [Example 489, 3-methyl-4-(((S)-2,2,2-trifluoro-1-((3R,5R,8R,9R,10S,13S,14S,17S)-3-hydroxy-3,13-dimethylhexadecahydro-1H-cyclopenta[a]phenanthren-17-yl)ethyl)amino)benzonitrile]
The IC50 of the first is lower: less than 100 nM for the first, 1000 to 10000 nM for the second. The first is the more potent here.

`COC[C@@]1(O)CC[C@H]2[C@@H](CC[C@@H]3[C@@H]2CC[C@]2(C)[C@@H](CCn4nnc(C)n4)CC[C@@H]32)C1` [Example 295, (3R,5S,8R,9R,10S,13R,14S,17R)-3-(methoxymethyl)-13-methyl-17-(2-(5-methyl-2H-tetrazol-2-yl)ethyl)hexadecahydro-1H-cyclopenta[a]phenanthren-3-ol] and `COC[C@@]1(O)CC[C@H]2[C@H](CC[C@@H]3[C@@H]2CC[C@]2(C)[C@@H](CCn4ccc(C#N)n4)CC[C@@H]32)C1` [Example 87, 1-(2-((3R,5R,8R,9R,10S,13R,14S,17R)-3-hydroxy-3-(methoxymethyl)-13-methylhexadecahydro-1H-cyclopenta[a]phenanthren-17-yl)ethyl)-1H-pyrazole-3-carbonitrile] cannot be ordered by IC50: less than 100 nM for the first, less than 100 nM for the second.
